{"source": "patent US10822325B2", "about": "“Human GLUT5 specific inhibitors and methods of treatment” (UNM RAINFOREST INNOVATIONS, priority 2015, dated 2020)", "key": {"[1]": {"molecular_target": "T1, human GLUT4 (Homo sapiens, UniProt P14672)", "T1 construct": "Full length DNA was subcloned into pFastBac1 (Life Technologies) vector with a N-terminal hexahistidine tag; hexahistidine (N); made in house; host or cells: Sf21 insect cells (baculovirus, pFastBac1)", "T1 sequence (P14672 1-509)": "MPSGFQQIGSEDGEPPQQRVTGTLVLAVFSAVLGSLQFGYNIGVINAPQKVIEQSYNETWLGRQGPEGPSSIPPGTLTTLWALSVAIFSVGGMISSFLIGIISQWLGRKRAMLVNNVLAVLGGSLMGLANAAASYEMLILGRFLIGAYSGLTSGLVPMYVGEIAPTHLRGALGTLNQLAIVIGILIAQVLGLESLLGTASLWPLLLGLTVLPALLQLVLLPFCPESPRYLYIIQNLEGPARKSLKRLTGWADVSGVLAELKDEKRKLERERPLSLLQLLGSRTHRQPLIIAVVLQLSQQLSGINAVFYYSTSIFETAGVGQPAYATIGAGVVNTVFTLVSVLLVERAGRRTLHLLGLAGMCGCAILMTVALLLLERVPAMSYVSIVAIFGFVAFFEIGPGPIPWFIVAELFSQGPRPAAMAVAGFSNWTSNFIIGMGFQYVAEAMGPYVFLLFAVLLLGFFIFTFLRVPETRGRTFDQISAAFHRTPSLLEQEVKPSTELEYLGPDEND", "assay": "Glucose entrance counter-flow transport in GLUT4 proteoliposomes", "format": "biochemical", "settings": "2 mM compound", "description": "(§1) cDNAs of GLUT1, 3, 4 and 5 were purchased from Open Biosystems (GE Healthcare). cDNAs of GLUT2 was a gift from Prof. Graeme Bell at University of Chicago. Full length DNA was subcloned into pFastBac1 (Life Technologies) vector with a N-terminal hexahistidine tag. Bacmids were generated in DH10Bac E. coli cells (Life Technologies). Baculoviruses were produced using Cellfectin II Reagent and amplified in Sf21 insect cells (Life Technologies). Cells were maintained at 26° C., and P1 (10^6 pfu/mL) was collected from infected cells after 72 hours. SF21 cells were propagated in HyClone SFX-Insect media (GE Healthcare), supplemented with 5% fetal bovine serum (Biowest), 4.8 mM glutamine, antibiotics (100 units/mL Penicillin G and 100 μg/mL streptomycin sulfate) and amphotericin B (2.5 μg/mL). […]\n(§2) For the entrance counterflow transport in proteoliposomes, the assay was started by the addition of 5 μL proteoliposomes solution (OD600 nm ˜30) to 200 μL, assay solution, containing 10 μM ^14C-radiolabeled glucose (for GLUT1 wild-type or F379H mutant and GLUT2-4) or fructose (for GLUT5 wild-type or H387F mutant and GLUT2) (Moravek Biochemicals) in 100 mM KPi buffer at pH 7.5. After one minute (or different specified time points when the time-dependent counter-flow transport activity was measured), the transport was stopped with ice-chilled quench buffer [0.1 M KPi (pH 5.5) and 0.1 M lithium chloride]. […]"}, "[2]": {"molecular_target": "T2, human GLUT3 (Homo sapiens, UniProt P11169)", "T2 construct": "Full length DNA was subcloned into pFastBac1 (Life Technologies) vector with a N-terminal hexahistidine tag; hexahistidine (N); made in house; host or cells: Sf21 insect cells (baculovirus, pFastBac1)", "T2 sequence (P11169 1-496)": "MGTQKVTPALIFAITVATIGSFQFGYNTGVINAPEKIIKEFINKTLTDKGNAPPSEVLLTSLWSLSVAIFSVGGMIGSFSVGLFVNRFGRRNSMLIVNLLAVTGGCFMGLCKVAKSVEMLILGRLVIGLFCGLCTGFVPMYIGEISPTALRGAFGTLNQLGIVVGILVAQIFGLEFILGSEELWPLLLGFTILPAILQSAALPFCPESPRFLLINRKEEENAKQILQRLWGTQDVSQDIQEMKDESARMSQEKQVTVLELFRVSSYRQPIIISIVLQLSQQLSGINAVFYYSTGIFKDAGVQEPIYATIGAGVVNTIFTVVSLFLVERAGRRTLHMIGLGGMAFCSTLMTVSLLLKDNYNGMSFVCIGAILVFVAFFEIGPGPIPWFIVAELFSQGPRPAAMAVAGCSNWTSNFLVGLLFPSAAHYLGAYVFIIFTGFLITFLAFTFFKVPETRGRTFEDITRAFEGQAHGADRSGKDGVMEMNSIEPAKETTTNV", "assay": "Glucose entrance counter-flow transport in GLUT3 proteoliposomes", "format": "biochemical", "settings": "2 mM compound", "description": "as §1, §2"}}, "note": "Entries after “also recorded” stand apart in the source; their conditions may differ.", "data": [{"smiles": "CS(=O)(=O)c1ccc(Nc2ccc3c(c2)OCO3)c([N+](=O)[O-])c1", "note": "[MSNBA, N-[4-(methylsulfonyl)-2-nitrophenyl]-1,3-benzodioxol-5-amine]", "values": [{"measurement": "effect on GLUT4 glucose transport", "setting": "[1]", "value": "did not affect; also recorded: did not influence"}, {"measurement": "effect on GLUT3 glucose transport", "setting": "[2]", "value": "did not affect; also recorded: did not influence"}]}]}
